According to patent US5663205A, “Pharmaceutical composition for use in glaucoma treatment” (Senju Pharmaceutical Co. Ltd., priority 1992, dated 1997):

Key:
[1] = system: Normal Intraocular Pressure; assay: Test Example 2 (1): intraocular pressure reducing activity on normal intraocular pressure, pigmented rabbits; format: in vivo, pigmented rabbits (Dutch belted rabbits)
Protocol: Intraocular Pressure Reducing Activity of Amosulalol Hydrochloride on Normal Intraocular Pressure in Pigmented Rabbits Forty (40) male pigmented rabbits (Dutch belted rabbits) weighing about 2 kg, after having been confirmed to be free from ocular abnormalities, were bred in a breeding room maintained at a temperature of 24± 4° C. and at a relative humidity of 55± 15%, while they were fed solid food (Labo RG-RO, manufactured by Nihon Nohsan Kogyo K.K.) at a daily rate of 100 g per rabbit and allowed free access to tap water as drinking water. As a test drug, amosulalol hydrochloride was processed into 0.05%, 0.5% and 1.0% aqueous solutions which were used in the test, and 0.5% timolol maleate ophthalmic solution [Timoptol (registered trademark): Ban-yu Pharmaceutical Co.] and physiological saline were used as a positive control drug and a control substance, respectively. (1) Measurement of intraocular pressure: Forty (40) rabbits were divided into five groups. each consisting of 8 heads, and 50 μl of test drug as well as the control drug and physiological saline were applied topically to one eye each of the individual rabbits, with the other being left untreated. Before instillation and 0.5, 1, 2, 3, 4, 6 and 8 hours after topical application respectively, intraocular pressure for both eyes of each rabbit was measured using PTG. Time-course changes of intraocular pressure measurements taken with the eyes treated by instillation of each of the test drugs, control drug and physiological saline, are illustrated in FIGS. 2 (for treated eyes) and 3 (for non-treated eyes), respectively, with time (hour) after instillation taken as abscissa and intraocular pressure (mmHg) as ordinate; each value in mean ± S.E. (the number in each case is 8). The signs "a", "b", "c", "d" and "e" designate physiological saline, 0.05% aqueous solution of amosulalol hydrochloride, 0.5% aqueous solution of amosulalol hydrochloride, 1.0% aqueous solution of amosulalol hydrochloride and 0.5% solution of timolol maleate, respectively.

[2] = system: pupil diameter; assay: Test Example 2 (2): pupil diameter, pigmented rabbits; format: in vivo, pigmented rabbits (Dutch belted rabbits); details: 0.5% aqueous solution (FIG. 4), 0.5 to 6 hours
Protocol: Forty (40) male pigmented rabbits (Dutch belted rabbits) weighing about 2 kg, after having been confirmed to be free from ocular abnormalities, were bred in a breeding room maintained at a temperature of 24± 4° C. and at a relative humidity of 55± 15%, while they were fed solid food (Labo RG-RO, manufactured by Nihon Nohsan Kogyo K.K.) at a daily rate of 100 g per rabbit and allowed free access to tap water as drinking water. As a test drug, amosulalol hydrochloride was processed into 0.05%, 0.5% and 1.0% aqueous solutions which were used in the test, and 0.5% timolol maleate ophthalmic solution [Timoptol (registered trademark): Ban-yu Pharmaceutical Co.] and physiological saline were used as a positive control drug and a control substance, respectively. (2) Measurement of pupil diameter: With each of the rabbits as used under the above item (1), pupil diameter was measured for both eyes using a micrometer caliper, before instillation and 0.5, 1, 2, 3, 4, and 6 hours after topical application of the respective test drugs and physiological saline, respectively. […] The signs "a" and "c" designate physiological saline, 0.5% aqueous solution of amosulalol hydrochloride, respectively.

[3] = system: Normal Intraocular Pressure; assay: Test Example 3: intraocular pressure, consecutive application for 5 days, pigmented rabbits; format: in vivo; details: 0.5% aqueous solution
Protocol: Intraocular Pressure Reducing Activity of Amosulalol Hydrochloride by Consecutive Application for 5 Days on Normal Intraocular Pressure in Pigmented Rabbits
Eight (8) male pigmented rabbits weighing about 2 kg, after having been confirmed to be free from ocular abnormalities, were bred in a breeding room maintained at a temperature of 24± 4° C. and at a relative humidity of 55± 15%, while they were given solid food (Labo RG-RO, manufactured by Nihon Nohsan Kogyo K.K.) at a daily rate of 100 g per rabbit and allowed free access to tap water as drinking water.
For the 8 pigmented rabbits bred by the above procedure, 50 μl of 0.5% aqueous solution of amosulalol hydrochloride was applied to one eye, with 50 μl of physiological saline being given topically to the other. Intraocular pressure was measured before the first instillation and at regular intervals of 1 hour up to 8 hours after application on Days 1 and 5, and before the first instillation and 2 or 3 hours after application on Days 2, 3 and 4, respectively, with intraocular pressure additionally being measured 24 hours after the first instillation on Day 5.
The signs "a" and "c" designate physiological saline, 0.5% aqueous solution of amosulalol hydrochloride, respectively.

[4] = system: Hypertensive Intraocular Pressure Induced by Laser Irradiation; assay: Test Example 5: hypertensive intraocular pressure induced by laser irradiation, pigmented rabbits; format: in vivo; details: 0.5% aqueous solution
Protocol: Intraocular Pressure Reducing Activity of 0.5% Aqueous Solution of Amosulalol Hydrochloride on Hypertensive Intraocular Pressure Induced by Laser Irradiation in Pigmented Rabbits
With 5 male pigmented rabbits weighing about 2 kg used as test animals, 50 μl of 0.5% aqueous solution of amosulalol hydrochloride was applied in a 50 μl portion to one eye of each rabbit, with 50 μl of physiological saline being given to the other. 30 min later, a laser beam was irradiated onto 6 different spots (spot size: 200 μm, power of 0.5 W, for 0.1 sec) of the irises in both eyes in such a manner that the spots were located at an equal distance. Intraocular pressure was measured for both eyes using PTG before instillation as well as before laser irradiation and 15, 30 and 45 min after laser irradiation.
FIG. 7 is a graph showing the intraocular pressure reducing activity of 0.5% aqueous solution of amosulalol hydrochloride on hypertensive intraocular pressure induced by laser irradiation in pigmented rabbits, with time (min) after laser irradiation taken as abscissa and intraocular pressure (mmHg) as ordinate; each value in mean ± S.E. (the number in each case is 8). The signs "a" and "c" designate physiological saline and 0.5% aqueous solution of amosulalol hydrochloride, respectively.

## COc1ccccc1OCCNCC(O)c1ccc(C)c(S(N)(=O)=O)c1.Cl (stereo not shown) [amosulalol hydrochloride, 5-[1-hydroxy-2-[2-(2-methoxyphenoxy)ethylamino]ethyl]-2-methylbenzenesulfonamide hydrochloride]
[1]; 0.05% aqueous solution, treated eyes, 2 hours after instillation
  maximum drop in intraocular pressure: 3.6 mmHg
[1]; 0.05%, normal eyes
  intraocular pressure reducing activity compared with 0.5% timolol maleate ophthalmic solution: more potent intraocular pressure reducing activity
[1]; 0.5% aqueous solution, treated eyes, 2 hours after topical application
  maximum decrease in intraocular pressure: 6.2 mmHg
[1]; 0.5% aqueous solution, treated eyes, from 30 min
  significant drop in intraocular pressure until (time after topical application): 4 h
[1]; 1.0% aqueous solution, treated eyes, 3 hours after instillation
  maximum decrease in intraocular pressure: 9.0 mmHg
[1]; 1.0% aqueous solution, treated eyes, sustained from 30 min after instillation
  decrease in intraocular pressure sustained until (time after instillation): 6 h
[1]; non-treated eyes (FIG. 3)
  change in intraocular pressure of the other, non-treated eyes: no significant change
[2]
  change in pupil diameter: no significant change in the pupil diameter
[3]; Day 1
  return of intraocular pressure to the initial value (time): 24 h
[3]; Day 1, 2 hours after the first instillation
  maximum drop in intraocular pressure: 4.8 mmHg
[3]; Day 1, second instillation 4 hours later
  further decrease in intraocular pressure by second instillation: not found to bring about any further decrease in intraocular pressure
[3]; Day 2, 2 hours after instillation
  decrease in intraocular pressure: significant decrease in intraocular pressure
[3]; Day 3
  decrease in intraocular pressure: no significant intraocular pressure drop
[3]; Day 4
  decrease in intraocular pressure: significant decrease in intraocular pressure
[3]; Day 5, any measuring time
  decrease in intraocular pressure: almost the same degree of intraocular pressure decrease as on Day 1
[3]; three times a day for 5 days
  tachyphylaxis: free from tachyphylaxis
[4]; 30 min after instillation, immediately before laser irradiation
  decrease in intraocular pressure before laser irradiation: 4.5 mmHg
[4]; laser irradiation
  suppressory activity against increase of the intraocular pressure: exhibits suppressory activity against increase of the intraocular pressure
[4]; physiological saline increased by 7.9 mmHg about 15 min after irradiation
  intraocular pressure after laser irradiation: increased to almost the same level as before instillation
